In brackets after ≈: the same amount, converted by molar mass.
Tests used:
Type in all cases: cell-based
[1] = test system: Candida albican ATCC 96901; assay: In vitro antifungal activity (MIC80), Candida albican ATCC 96901; settings: Candida, ATCC96901; Table 2, ATCC 96901; read-out: Minimal inhibitory concentration (MIC80)
Method: (§1) In vitro antifungal activities of the inventive antifungal compounds were evaluated using test strains including Candida albican (ATCC 90873, 204276, 62342, 64124, 64550, 96901, MYA-573, MYA-574, MYA-575, MYA-576, MYA-1003) and Aspergillus fumigatus (ATCC 16424). Test samples and positive control samples were prepared by dissolving the inventive compounds and comparative compounds, i.e., amphotericin B, fluconazole and itraconazole, in DMSO, respectively, and each successively diluted with medium to obtain test and positive control solutions having test compound concentrations of 0.125 μg/ml to a maximum concentration not generating turbidity. Minimal inhibitory concentration (MIC80) of each compound was determined as the lowest concentration of the test compounds required to reduce growth by 80% relative to a control strain not treated.
(§2) 1) Test strain: Candida albican ATCC 90873, 204276, 62342, 64124, 64550, 96901, MYA-573, MYA-574, MYA-575, MYA-576, MYA-1003, and Aspergillus fumigatus ATCC 16424 were commercially obtained from The American Type Culture Collection (ATCC) and subcultured in CHEMON Co. Ltd. (amphotericin B was commercially purchased from Sigma, and fluconazole and itraconazole were prepared according to methods described in British Patent No. 2,099,818; and U.S. Pat. No. 4,267,179, respectively).
(§3) 2) Medium and culture condition: Candida albican was cultured in Sabourad Dextrose Agar, YM Agar or Potato Dextrose Agar according to ATCC information at a temperature of 37° C., 35° C., 30° C. or 25° C. Aspergillus fumigatus was cultured in Malt Extract Agar or Potato Dextrose Agar at a temperature ranging from 24 to 27° C.
(§4) 3) Preparation of test samples: the inventive compounds and comparative compounds were each diluted with DMSO to obtain 1 to 2 ml of a test sample in a concentration of 100-folds of the determining maximum concentration (256 μg/ml).
(§5) The test samples were each successively diluted with RPMI 1640 to obtain test solutions having concentrations of […] in a 12×75 mm sterilized disposable culture tube. The final concentration of DMSO was adjusted to […] (v/v).
(§6) 5) Preparation of strain solution and inoculation
(§7) Candida albican strains were each subcultured in Sabourad Dextrose Agar, YM Agar or Potato Dextrose Agar medium at 35° C. for 2˜3 days. In the case of yeasts, a single colony was taken from prominent colonies and suspended in 0.85% sterile physiological saline solution and the turbidity of the suspension was adjusted to 80˜82% at 530 nm, and then diluted 50-fold with RPMI 1640 medium to 1.0×10^3˜5.0×10^3 CFU/ml. The turbidity of fungi was adjusted to 80˜82% and the suspension was diluted 50-fold to […]. Aspergillus fumigatus strains were subcultured in Malt Extract Agar for 7˜10 days, and a single colony was taken from prominent colonies and suspended in 0.85% sterile physiological saline solution and the suspension was adjusted to 0.108 at 530 nm, and then diluted 1000-fold with RPMI 1640 medium to 0.4×10^2˜5×10^4 CFU/ml. The turbidity of fungi was adjusted to 80˜82% and the suspension was diluted 50-fold to 0.4102˜0.5104 CFU/ml.
(§8) The strain solutions thus obtained were each seeded into a sterilized 96-well microplate, 0.1 ml of each test solution were added thereto, and […] of alamarblue was treated to each well (Biosource, #DAL1100). This procedure was repeated 2 times.
(§9) Minimal inhibitory concentration (MIC80) of each compound was determined as the lowest concentration of the test compounds required to reduce growth by 80% relative to a control strain not treated.

[2] = test system: Candida albican ATCC MYA-1003; assay: In vitro antifungal activity (MIC80), Candida albican ATCC MYA-1003; settings: Candida; Table 2, MYA 1003; read-out: Minimal inhibitory concentration (MIC80)
Method: as §1, §2, §3, §4, §5, §6, §7, §8, §9

[3] = test system: Candida albican ATCC MYA-573; assay: In vitro antifungal activity (MIC80), Candida albican ATCC MYA-573; settings: Candida; Table 2, MYA 573; read-out: Minimal inhibitory concentration (MIC80)
Method: as §1, §2, §3, §4, §5, §6, §7, §8, §9

[4] = test system: Candida albican ATCC 90873; assay: In vitro antifungal activity (MIC80), Candida albican ATCC 90873; settings: Candida, ATCC90873; Table 2, ATCC 90873; read-out: Minimal inhibitory concentration (MIC80)
Method: as §1, §2, §3, §4, §5, §6, §7, §8, §9

[5] = test system: Aspergillus fumigatus (ATCC 16424); assay: In vitro antifungal activity (MIC80), Aspergillus fumigatus ATCC 16424; settings: Aspergillus fumigatus, ATCC16424, Table 2, ATCC 16424; read-out: Minimal inhibitory concentration (MIC80)
Method: as §1, §2, §3, §4, §5, §6, §7, §8, §9
MIC80 of each of the compounds of which antifungal activities can be confirmed by Table 2 was determined using other test strains, i.e., Aspergillus fumigatus ATCC 16424 and MYA-1163, Aspergillus terreus ATCC 28301, Aspergillus flavus ATCC MYA-1004, and Aspergillus niger ATCC 9142.

[6] = test system: Candida albican ATCC MYA-574; assay: In vitro antifungal activity (MIC80), Candida albican ATCC MYA-574; settings: Candida; Table 2, MYA 574; read-out: Minimal inhibitory concentration (MIC80)
Method: as §1, §2, §3, §4, §5, §6, §7, §8, §9

[7] = test system: Candida albican ATCC MYA-576; assay: In vitro antifungal activity (MIC80), Candida albican ATCC MYA-576; settings: Candida; Table 2, MYA 576; read-out: Minimal inhibitory concentration (MIC80)
Method: as §1, §2, §3, §4, §5, §6, §7, §8, §9

[8] = test system: Candida albican ATCC 204276; assay: In vitro antifungal activity (MIC80), Candida albican ATCC 204276; settings: ATCC204276, Table 2, 204276, read-out: Minimal inhibitory concentration (MIC80)
Method: as §1, §2, §3, §4, §5, §6, §7, §8, §9

[9] = test system: Candida albican ATCC 64124; assay: In vitro antifungal activity (MIC80), Candida albican ATCC 64124; settings: Candida, ATCC64124; Table 2, 64124; read-out: Minimal inhibitory concentration (MIC80)
Method: as §1, §2, §3, §4, §5, §6, §7, §8, §9

[10] = test system: Candida albican ATCC 64550; assay: In vitro antifungal activity (MIC80), Candida albican ATCC 64550; settings: Candida, ATCC64550; Table 2, 64550; read-out: Minimal inhibitory concentration (MIC80)
Method: as §1, §2, §3, §4, §5, §6, §7, §8, §9

[11] = test system: Candida albican ATCC MYA-575; assay: In vitro antifungal activity (MIC80), Candida albican ATCC MYA-575; settings: Candida; Table 2, MYA 575; read-out: Minimal inhibitory concentration (MIC80)
Method: as §1, §2, §3, §4, §5, §6, §7, §8, §9

[12] = test system: Candida albican ATCC 62342; assay: In vitro antifungal activity (MIC80), Candida albican ATCC 62342; settings: Candida, ATCC62342; Table 2, 62342; read-out: Minimal inhibitory concentration (MIC80)
Method: as §1, §2, §3, §4, §5, §6, §7, §8, §9

Row | SMILES | MIC80 [1] | MIC80 [2] | MIC80 [3] | MIC80 [4] | MIC80 [5] | MIC80 [6] | MIC80 [7] | MIC80 [8] | MIC80 [9] | MIC80 [10] | MIC80 [11] | MIC80 [12]
1 | COc1ccc(-c2noc(C(=O)N3CCN([C@H](C)[C@](O)(Cn4cncn4)c4ccc(F)cc4F)CC3)n2)cc1 [Example 49, (4-((2R,3R)-3-(2,4-difluorophenyl)-3-hydroxy-4-(1H-1,2,4-triazol-1-yl)butan-2-yl)piperazin-1-yl)(3-(4-methoxyphenyl)-1,2,4-oxadiazol-5-yl)methanone] | > 128 µg/mL | > 128 µg/mL | 1 µg/mL (≈ 1.85 µM) | 0.125 µg/mL (≈ 0.232 µM) | 0.5 µg/mL (≈ 0.927 µM) | – | – | – | – | – | – | –
2 | C[C@@H](N1CCN(C(=O)c2nc(-c3ccccc3)ns2)CC1)[C@](O)(Cn1cncn1)c1ccc(F)cc1F [Example 50, (4-((2R,3R)-3-(2,4-difluorophenyl)-3-hydroxy-4-(1H-1,2,4-triazol-1-yl)butan-2-yl)piperazin-1-yl)(3-phenyl-1,2,4-thiadiazol-5-yl)methanone] | > 128 µg/mL | > 128 µg/mL | > 128 µg/mL | 0.125 µg/mL (≈ 0.238 µM) | 0.5 µg/mL (≈ 0.951 µM) | – | – | – | – | – | – | –
3 | COc1ccc(-c2nsc(C(=O)N3CCN([C@H](C)[C@](O)(Cn4cncn4)c4ccc(F)cc4F)CC3)n2)cc1 [Example 54, (4-((2R,3R)-3-(2,4-difluorophenyl)-3-hydroxy-4-(1H-1,2,4-triazol-1-yl)butan-2-yl)piperazin-1-yl)(3-(4-methoxyphenyl)-1,2,4-thiadiazol-5-yl)methanone] | > 128 µg/mL | > 128 µg/mL | 4 µg/mL (≈ 7.2 µM) | 0.125 µg/mL (≈ 0.225 µM) | 0.5 µg/mL (≈ 0.9 µM) | – | – | – | – | – | – | –
4 | Cc1ccc(-c2nsc(C(=O)N3CCN([C@H](C)[C@](O)(Cn4cncn4)c4ccc(F)cc4F)CC3)n2)cc1 [Example 53, (4-((2R,3R)-3-(2,4-difluorophenyl)-3-hydroxy-4-(1H-1,2,4-triazol-1-yl)butan-2-yl)piperazin-1-yl)(3-p-tolyl-1,2,4-thiadiazol-5-yl)methanone] | > 128 µg/mL | > 128 µg/mL | > 128 µg/mL | 0.25 µg/mL (≈ 0.463 µM) | 1 µg/mL (≈ 1.85 µM) | – | – | – | – | – | – | –
5 | C[C@@H](N1CCN(C(=O)c2nc(-c3ccccc3)no2)CC1)[C@](O)(Cn1cncn1)c1ccc(F)cc1F [Example 45, (4-((2R,3R)-3-(2,4-difluorophenyl)-3-hydroxy-4-(1H-1,2,4-triazol-1-yl)butan-2-yl)piperazin-1-yl)(3-phenyl-1,2,4-oxadiazol-5-yl)methanone] | > 128 µg/mL | > 128 µg/mL | 1 µg/mL (≈ 1.96 µM) | 0.125 µg/mL (≈ 0.245 µM) | 0.125 µg/mL (≈ 0.245 µM) | – | – | – | – | – | – | –
6 | C[C@@H](N1CCN(C(=O)c2nc(-c3ccc(Br)cc3)no2)CC1)[C@](O)(Cn1cncn1)c1ccc(F)cc1F [Example 46, (3-(4-bromophenyl)-1,2,4-oxadiazol-5-yl)(4-((2R,3R)-3-(2,4-difluorophenyl)-3-hydroxy-4-(1H-1,2,4-triazol-1-yl)butan-2-yl)piperazin-1-yl)methanone] | > 128 µg/mL | > 128 µg/mL | > 128 µg/mL | 0.125 µg/mL (≈ 0.212 µM) | 0.126 µg/mL (≈ 0.214 µM) | – | – | – | – | – | – | –
7 | CC(N1CCN(C(=O)c2nc(-c3ccc(Cl)cc3)no2)CC1)C(O)(Cn1cncn1)c1ccc(F)cc1F [Example 48, (3-(4-chlorophenyl-1,2,4-oxadiazol-5-yl)(4-((2R,3R)-3-(2,4-difluorophenyl)-3-hydroxy-4-(1H-1,2,4-triazol-1-yl)butan-2-yl)piperazin-1-yl)methanone] | > 128 µg/mL | > 128 µg/mL | 0.25 µg/mL (≈ 0.46 µM) | 0.126 µg/mL (≈ 0.232 µM) | 0.126 µg/mL (≈ 0.232 µM) | – | – | – | – | – | – | –
8 | C[C@@H](N1CCN(C(=O)c2nc(-c3ccc(Cl)cc3)ns2)CC1)[C@](O)(Cn1cncn1)c1ccc(F)cc1F [Example 51, (3-(4-chlorophenyl)-1,2,4-thiadiazol-5-yl)(4-((2R,3R)-3-(2,4-difluorophenyl)-3-hydroxy-4-(1H-1,2,4-triazol-1-yl)butan-2-yl)piperazin-1-yl)methanone] | > 128 µg/mL | > 128 µg/mL | 4 µg/mL (≈ 7.14 µM) | 0.25 µg/mL (≈ 0.446 µM) | 1 µg/mL (≈ 1.79 µM) | – | – | – | – | – | – | –
9 | C[C@@H](N1CCN(Cc2ccccn2)CC1)[C@](O)(Cn1cncn1)c1ccc(F)cc1F [Example 41, (2R,3R)-2-(2,4-difluorophenyl)-3-(4-((pyridin-2-yl)methyl)piperazin-1-yl)-1-(1H-1,2,4-triazol-1-yl)butan-2-ol] | 32 µg/mL (≈ 74.7 µM) | > 128 µg/mL | 2 µg/mL (≈ 4.67 µM) | 0.125 µg/mL (≈ 0.292 µM) | 1 µg/mL (≈ 2.33 µM) | 64 µg/mL (≈ 149 µM) | 0.125 µg/mL (≈ 0.292 µM) | 0.125 µg/mL (≈ 0.292 µM) | 64 µg/mL (≈ 149 µM) | 16 µg/mL (≈ 37.3 µM) | 64 µg/mL (≈ 149 µM) | –
10 | Cc1ccc(-c2noc(C(=O)N3CCN([C@H](C)[C@](O)(Cn4cncn4)c4ccc(F)cc4F)CC3)n2)cc1 [Example 47, (4-((2R,3R)-3-(2,4-difluorophenyl)-3-hydroxy-4-(1H-1,2,4-triazol-1-yl)butan-2-yl)piperazin-1-yl)(3-p-tolyl-1,2,4-oxadiazol-5-yl)methanone] | > 128 µg/mL | > 128 µg/mL | 0.25 µg/mL (≈ 0.478 µM) | 0.125 µg/mL (≈ 0.239 µM) | 0.25 µg/mL (≈ 0.478 µM) | – | – | – | – | – | – | –
11 | C[C@@H](N1CCN(c2cccc(N(C)CCc3cccs3)n2)CC1)[C@](O)(Cn1cncn1)c1ccc(F)cc1F [Example 28, (2R,3R)-2-(2,4-difluorophenyl)-3-(4-(6-(methyl(2-(thiophen-2-yl)ethyl)amino)pyridin-2-yl)piperazin-1-yl)-1-(1H-1,2,4-triazol-1-yl)butan-2-ol] | > 128 µg/mL | > 128 µg/mL | > 128 µg/mL | 0.25 µg/mL (≈ 0.452 µM) | – | > 128 µg/mL | 1 µg/mL (≈ 1.81 µM) | – | > 128 µg/mL | > 128 µg/mL | 1 µg/mL (≈ 1.81 µM) | > 128 µg/mL

Reference: US20100144712A1 (priority 2007, published 2010)
